{"source": "paper PMC8880313", "about": "“Discovery of Novel Andrographolide Derivatives as Antiviral Inhibitors against Human Enterovirus A71” (Pharmaceuticals, 2022)", "format_in_all_cases": "cell-based, human enterovirus A71 (EV-A71) strain 41", "key": {"[1]": {"tested_on": "EV-A71", "assay": "Pre-treatment assay", "conditions": "pre-treatment 2 h, highest concentration, 12 hpi", "procedure": "(§1) To confirm this finding, assays to investigate the effect of ZAF-47 on EV-A71 entry into cells were performed. With pre-treatment assay, we first treated the cells with different concentrations of ZAF-47 before subjecting them to EV-A71 infection. The aim was to investigate if ZAF-47 was able to bind to host surface receptors which would prevent the virions from binding and thus blocking viral entry. […] Even at the highest concentration, the reduction in viral titre (0.8 log10 PFU/mL decrease) was not as pronounced as post-treatment and could likely be due to drug toxicity. Thus, it is unlikely that ZAF-47 inhibits EV-A71 infection by binding with host receptors to block viral entry. With co-treatment assay, we first treated EV-A71 virions with ZAF-47 for 30 min before infecting the cells. The aim was to investigate if ZAF-47 was able to bind to viral surface proteins which would prevent the virions from binding to the host receptors and thus blocking viral entry. […] Thus, it is unlikely that ZAF-47 blocks EV-A71 entry into host cells by binding to viral surface proteins. Instead, using entry bypass assay, we were able to deduce that ZAF-47 most likely targets EV-A71 post-entry stages. […]\n(§2) Seeded 24-well plates, with 1.5 × 10^5 RD cells per well, were incubated overnight at 37 °C with 5% CO2. […] The plates were frozen down at 12 hpi for viral titre quantification using viral plaque assay."}, "[2]": {"tested_on": "EV-A71 proteins, VP2 and VP0", "assay": "SDS-PAGE and Western blot of EV-A71 proteins", "conditions": "6 h", "procedure": "Since ZAF-47 possibly targets EV-A71 post-entry stages, we were interested in looking at the effect of ZAF-47 on EV-A71 protein expression. To do so, we first infected RD cells with EV-A71. We then treated the infected cells with different concentration of ZAF-47 for 6 h and collected the cell lysates for SDE-PAGE and Western blot. […] Since ZAF-47 acts on the post-entry stages and reduces EV-A71 protein expression, we hypothesized that ZAF-47 could be inhibiting RNA replication or protein translation, or possibly both, resulting in reduced viral protein expression.\nSeeded 24-well plates, with 1.5 × 10^5 RD cells per well, were incubated overnight at 37 °C with 5% CO2. After which, the cells were subjected to EV-A71 infection (100 µL per well, MOI = 1) for 1 h. Reduced serum DMEM was used for mock-infection. The infected cells were then rinsed with PBS twice before treatment with 0.1% DMSO or ZAF-47 at various concentrations for 6 h at 37 °C with 5% CO2. After 6 h of drug treatment, cells were lysed with 100 µL of 1x Laemmli buffer and cell lysate was stored at −80 °C.\nThe cell lysate samples were subsequently boiled for 10 min at 100 °C and loaded on to a 10% acrylamide gel. SDS-PAGE was run for 2.5 h at 100V to separate the proteins. Bio Basic 10–250 kDa Protein Ladder BZ0011G (Bio Basic, Markham, Canada) was also loaded as a molecular-weight size marker. […]"}, "[3]": {"tested_on": "EV-A71 RNA", "assay": "Entry bypass assay (EV-A71 RNA transfection)", "conditions": "12 hpi", "procedure": "as §1, §2"}}}
{"molecule": "CC(=O)OC[C@]1(C)C(=O)CC[C@@]2(C)C(C/C=C3/C(=O)OC[C@@H]3Oc3cccc4cccnc34)=C(C)CC[C@@H]21", "note": "[ZAF-47, (14β)-(8′-Quinolinoxy)-3-ketone-9-dehydro-17-hydro-19-acetoxy–andrographolide]", "values": [{"measurement": "reduction in viral titre", "setting": "[1]", "result": 0.8, "unit": "log10 PFU/mL"}, {"measurement": "VP0 band intensity reduction in comparison to the control", "setting": "[2]; 5 µM, normalized with β-actin", "result": 35, "unit": "fold"}, {"measurement": "VP2 band", "setting": "[2]; different concentrations", "result": "not with any ZAF-47 treatment"}, {"measurement": "viral reduction", "setting": "[3]; 10 µM", "result": 0.9, "unit": "log"}, {"measurement": "viral reduction", "setting": "[3]; 20 µM", "result": 2.6, "unit": "log"}]}
